Test results: patent US20240208992A1, “MACROCYCLES AS CFTR MODULATORS” (Idorsia Pharmaceuticals Ltd, priority 2021, published 2024)

Molecular target: human F508del-CFTR (Homo sapiens, UniProt P13569, DEL508-508)
Experiment: F508del-CFTR cell surface expression (corrector activity), DiscoveRx ß-galactosidase complementation chemiluminescence assay in recombinant U2OS cell line;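 also: U2OS cells co-expressing ProLink-tagged F508del-CFTR and a membrane-anchored enzyme acceptor, where more surface CFTR restores β-galactosidase activity measured by chemiluminescence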
Details: 16h compound incubation; for EC50: EC50, F508del-CFTR cell surface expression; for Emax: U2OS, in relation to the Emax of the corrector lumacaftor (=100%)
[1] = U2OS cell line, arithmetic mean values

Chain of human F508del-CFTR (P13569 with tags, fused parts or gaps DEL508-508): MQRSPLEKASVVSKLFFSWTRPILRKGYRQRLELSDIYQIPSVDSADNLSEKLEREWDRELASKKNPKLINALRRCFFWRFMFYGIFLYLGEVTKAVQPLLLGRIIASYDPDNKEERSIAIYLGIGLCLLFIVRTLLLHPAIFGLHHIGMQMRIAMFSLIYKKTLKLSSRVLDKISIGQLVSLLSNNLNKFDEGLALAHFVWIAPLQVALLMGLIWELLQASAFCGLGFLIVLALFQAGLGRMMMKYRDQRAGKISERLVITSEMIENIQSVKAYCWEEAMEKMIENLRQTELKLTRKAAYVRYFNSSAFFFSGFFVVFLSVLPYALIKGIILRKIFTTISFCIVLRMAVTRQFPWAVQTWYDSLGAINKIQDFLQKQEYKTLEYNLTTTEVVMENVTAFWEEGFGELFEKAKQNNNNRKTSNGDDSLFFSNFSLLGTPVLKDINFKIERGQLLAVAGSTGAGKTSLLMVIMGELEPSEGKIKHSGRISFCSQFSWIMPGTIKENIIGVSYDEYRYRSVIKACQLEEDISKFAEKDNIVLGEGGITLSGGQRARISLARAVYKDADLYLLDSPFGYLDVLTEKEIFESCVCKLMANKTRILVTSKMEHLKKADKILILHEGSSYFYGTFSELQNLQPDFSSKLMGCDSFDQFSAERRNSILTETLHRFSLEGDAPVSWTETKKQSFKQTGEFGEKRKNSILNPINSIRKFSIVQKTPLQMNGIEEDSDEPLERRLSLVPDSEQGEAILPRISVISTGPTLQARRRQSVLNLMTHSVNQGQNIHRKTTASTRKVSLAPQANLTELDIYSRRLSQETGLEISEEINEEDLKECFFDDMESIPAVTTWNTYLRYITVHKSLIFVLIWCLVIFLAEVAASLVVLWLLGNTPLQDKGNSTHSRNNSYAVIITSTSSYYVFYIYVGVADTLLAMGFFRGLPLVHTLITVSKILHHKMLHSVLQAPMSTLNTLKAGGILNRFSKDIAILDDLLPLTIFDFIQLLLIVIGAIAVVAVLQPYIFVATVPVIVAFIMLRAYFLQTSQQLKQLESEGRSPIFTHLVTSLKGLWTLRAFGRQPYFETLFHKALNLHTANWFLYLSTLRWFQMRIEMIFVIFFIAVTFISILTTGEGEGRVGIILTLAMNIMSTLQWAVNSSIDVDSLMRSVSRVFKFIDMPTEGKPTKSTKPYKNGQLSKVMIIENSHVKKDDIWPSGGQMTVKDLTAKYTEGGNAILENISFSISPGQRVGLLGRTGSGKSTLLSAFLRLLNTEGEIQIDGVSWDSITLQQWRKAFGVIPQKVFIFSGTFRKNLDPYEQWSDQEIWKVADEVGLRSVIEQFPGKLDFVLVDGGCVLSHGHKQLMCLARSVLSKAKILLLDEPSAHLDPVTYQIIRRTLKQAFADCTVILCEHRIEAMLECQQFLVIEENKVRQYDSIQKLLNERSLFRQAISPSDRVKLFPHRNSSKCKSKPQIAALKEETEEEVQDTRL

Row | EC50 (U2OS cells, geomean of several measurements) | Emax (U2OS cells, arithmetic mean) | SMILES | EC50 (U2OS cell line, geomean values) | Emax [1]
1 | 703 nM | 440% | COc1cc(CCNC(=O)[C@@H]2CC(=O)N(C)[C@@H](CC(C)C)C(=O)N(C)[C@@H](CC(F)(F)F)C(=O)N[C@H](Cc3ccccc3)COc3ccc4nc(C)oc4c3C(=O)N2)on1 (mixture of isomers) [Example 974, (8R,11RS,14S,18S)-8-benzyl-14-isobutyl-N-(2-(3-methoxyisoxazol-5-yl)ethyl)-2,12,15-trimethyl-10,13,16,20-tetraoxo-11-(2,2,2-trifluoroethyl)-7,8,9,10,11,12,13,14,15,16,17,18,19,20-tetradecahydrooxazolo[4′,5′:5,6]benzo[1,2-p][1]oxa[4,7,10,14]tetraazacycloheptadecine-18-carboxamide] |  | 
2 |  |  | CC(C)C[C@H]1C(=O)N(CCC(C)(C)C)CC(=O)N[C@H](Cc2ccccc2)COc2cc3c(cc2C(=O)N[C@H](C(=O)NCCc2ccc4c(c2)OCO4)CC(=O)N1C)OCO3 (racemic) [Example 1, (7R,13S,17RS)-N-(2-(benzo[d][1,3]dioxol-5-yl)ethyl)-7-benzyl-11-(3,3-dimethylbutyl)-13-isobutyl-14-methyl-9,12,15,19-tetraoxo-6,7,8,9,10,11,12,13,14,15,16,17,18,19-tetradecahydro-[1,3]dioxolo[4′,5′:4,5]benzo[1,2-p][1]oxa[4,7,10,14]tetraazacycloheptadecine-17-carboxamide] | 56 nM | 105%
3 |  |  | CC(C)C[C@H]1C(=O)N(CCc2ccccc2)CC(=O)N[C@H](Cc2ccccc2)COc2cc3c(cc2C(=O)N[C@H](C(=O)NCCc2ccc4c(c2)OCO4)CC(=O)N1C)OCO3 (racemic) [Example 5, (7R,13S,17RS)-N-(2-(benzo[d][1,3]dioxol-5-yl)ethyl)-7-benzyl-13-isobutyl-14-methyl-9,12,15,19-tetraoxo-11-phenethyl-6,7,8,9,10,11,12,13,14,15,16,17,18,19-tetradecahydro-[1,3]dioxolo[4′,5′:4,5]benzo[1,2-p][1]oxa[4,7,10,14]tetraazacycloheptadecine-17-carboxamide] | 369 nM | 109%
4 |  |  | CC(C)C[C@H]1C(=O)N(CCCOCc2ccccc2)CC(=O)N[C@H](Cc2ccccc2)COc2cc3c(cc2C(=O)N[C@H](C(=O)NCCc2ccc4c(c2)OCO4)CC(=O)N1C)OCO3 (racemic) [Example 6, (7R,13S,17RS)-N-(2-(benzo[d][1,3]dioxol-5-yl)ethyl)-7-benzyl-11-(3-(benzyloxy)propyl)-13-isobutyl-14-methyl-9,12,15,19-tetraoxo-6,7,8,9,10,11,12,13,14,15,16,17,18,19-tetradecahydro-[1,3]dioxolo[4′,5′:4,5]benzo[1,2-p][1]oxa[4,7,10,14]tetraazacycloheptadecine-17-carboxamide] | 420 nM | 112%
5 |  |  | COc1cc2c(cc1OC)C(=O)N[C@H](C(=O)NCCc1ccc3c(c1)OCO3)CC(=O)N(C)[C@@H](CC1CC1)C(=O)N(CCC1CCCCC1)CC(=O)N[C@H](Cc1ccccc1)CO2 (racemic) [Example 9, (3R,9S,13RS)-N-(2-(benzo[d][1,3]dioxol-5-yl)ethyl)-3-benzyl-7-(2-cyclohexylethyl)-9-(cyclopropylmethyl)-17,18-dimethoxy-10-methyl-5,8,11,15-tetraoxo-2,3,4,5,6,7,8,9,10,11,12,13,14,15-tetradecahydrobenzo[p][1]oxa[4,7,10,14]tetraazacycloheptadecine-13-carboxamide] | 360 nM | 130%
6 |  |  | COc1cc2c(cc1OC)C(=O)N[C@H](C(=O)NCCc1ccc3c(c1)OCO3)CC(=O)N(C)[C@@H](CC1CCCC1)C(=O)N(CCC1CCCCC1)CC(=O)N[C@H](Cc1ccccc1)CO2 (racemic) [Example 10, (3R,9S,13RS)-N-(2-(benzo[d][1,3]dioxol-5-yl)ethyl)-3-benzyl-7-(2-cyclohexylethyl)-9-(cyclopentylmethyl)-17,18-dimethoxy-10-methyl-5,8,11,15-tetraoxo-2,3,4,5,6,7,8,9,10,11,12,13,14,15-tetradecahydrobenzo[p][1]oxa[4,7,10,14]tetraazacycloheptadecine-13-carboxamide] | 82 nM | 123%
7 |  |  | COc1cccc2c1C(=O)N[C@H](C(=O)NCCc1ccc3c(c1)CCCO3)CC(=O)N(C)[C@@H](CC(C)C)C(=O)N(CCC1CCCCC1)CC(=O)N[C@H](Cc1ccccc1)CO2 (racemic) [Example 11, (3R,9S,13RS)-3-benzyl-N-(2-(chroman-6-yl)ethyl)-7-(2-cyclohexylethyl)-9-isobutyl-16-methoxy-10-methyl-5,8,11,15-tetraoxo-2,3,4,5,6,7,8,9,10,11,12,13,14,15-tetradecahydrobenzo[p][1]oxa[4,7,10,14]tetraazacycloheptadecine-13-carboxamide] |  | 132%
8 |  |  | COc1cccc2c1C(=O)N[C@H](C(=O)NCCc1ccc3c(c1)OCCCO3)CC(=O)N(C)[C@@H](CC(C)C)C(=O)N(CCC1CCCCC1)CC(=O)N[C@H](Cc1ccccc1)CO2 (racemic) [Example 12, (3R,9S,13RS)-3-benzyl-7-(2-cyclohexylethyl)-N-(2-(3,4-dihydro-2H-benzo[b][1,4]dioxepin-7-yl)ethyl)-9-isobutyl-16-methoxy-10-methyl-5,8,11,15-tetraoxo-2,3,4,5,6,7,8,9,10,11,12,13,14,15-tetradecahydrobenzo[p][1]oxa[4,7,10,14]tetraazacycloheptadecine-13-carboxamide] |  | 184%
9 |  |  | COc1cccc2c1C(=O)N[C@H](C(=O)NCCc1ccc3c(c1)COC3)CC(=O)N(C)[C@@H](CC(C)C)C(=O)N(CCC1CCCCC1)CC(=O)N[C@H](Cc1ccccc1)CO2 (racemic) [Example 13, (3R,9S,13RS)-3-benzyl-7-(2-cyclohexylethyl)-N-(2-(1,3-dihydroisobenzofuran-5-yl)ethyl)-9-isobutyl-16-methoxy-10-methyl-5,8,11,15-tetraoxo-2,3,4,5,6,7,8,9,10,11,12,13,14,15-tetradecahydrobenzo[p][1]oxa[4,7,10,14]tetraazacycloheptadecine-13-carboxamide] | 268 nM | 153%
10 |  |  | COc1cccc2c1C(=O)N[C@H](C(=O)NCCc1ccc3ccoc3c1)CC(=O)N(C)[C@@H](CC(C)C)C(=O)N(CCC1CCCCC1)CC(=O)N[C@H](Cc1ccccc1)CO2 (racemic) [Example 14, (3R,9S,13RS)-N-(2-(benzofuran-6-yl)ethyl)-3-benzyl-7-(2-cyclohexylethyl)-9-isobutyl-16-methoxy-10-methyl-5,8,11,15-tetraoxo-2,3,4,5,6,7,8,9,10,11,12,13,14,15-tetradecahydrobenzo[p][1]oxa[4,7,10,14]tetraazacycloheptadecine-13-carboxamide] | 160 nM | 185%
11 |  |  | COc1cccc2c1C(=O)N[C@H](C(=O)NCCc1ccc3c(c1)OCC3)CC(=O)N(C)[C@@H](CC(C)C)C(=O)N(CCC1CCCCC1)CC(=O)N[C@H](Cc1ccccc1)CO2 (racemic) [Example 15, (3R,9S,13RS)-3-benzyl-7-(2-cyclohexylethyl)-N-(2-(2,3-dihydrobenzofuran-6-yl)ethyl)-9-isobutyl-16-methoxy-10-methyl-5,8,11,15-tetraoxo-2,3,4,5,6,7,8,9,10,11,12,13,14,15-tetradecahydrobenzo[p][1]oxa[4,7,10,14]tetraazacycloheptadecine-13-carboxamide] |  | 240%
